The results in this text go back to article PMC7215599, “Synthesis, Antitumor Evaluation, Molecular Modeling and Quantitative Structure–Activity Relationship (QSAR) of Novel 2-[(4-Amino-6-N-substituted-1,3,5-triazin-2-yl)methylthio]-4-chloro-5-methyl-N-(1H-benzo[d]imidazol-2(3H)-ylidene)Benzenesulfonamides” (International Journal of Molecular Sciences, 2020).

The test system of assay [1] is HCT-116, MCF-7 and HeLa cell lines. Description: MTT cell viability assay, all tested cancer cell lines taken together. The format is cell-based. The note with it: Homo sapiens; range over HCT-116, MCF-7 and HeLa; read-out: IC50 toward all of the tested cell lines (range over the lines). On the procedure:
(§1) Compounds 6–49 were evaluated in vitro for their effects on the viability of the three human cancer cell lines: HCT-116 (colon cancer), MCF-7 (breast cancer) and HeLa (cervical cancer) as well as the non-cancerous keratinocyte cell line (HaCaT). The concentration required for 50% inhibition of cell viability IC50 was calculated and compared with the reference drug cisplatin, the results are shown in Table 1.
(§2) Cell lines: colon cancer (HCT-116), breast cancer (MCF-7), cervical cancer (HeLa), the human keratinocyte cell line (HaCaT); NT—not tested; IC50 was measured at concentrations 1, 10, 25, 50, and 100 µM. IC50 values are expressed as the mean ± SD of at last three independent experiments.
(§3) All chemicals, if not stated otherwise, were obtained from Sigma–Aldrich (St. Louis, MO, USA). The HCT-116 cell lines was purchased from ATCC (ATCC-No: CCL-247), while the MCF-7, HeLa and HaCaT cell lines were purchased from Cell Lines Services (Eppelheim, Germany). Cells were cultured in Dulbecco’s modified Eagle’s medium (DMEM) supplemented with 10% fetal bovine serum, 2 mM glutamine, 100 units/mL penicillin, and 100 µg/mL streptomycin. Cultures were maintained in a humidified atmosphere with 5% carbon dioxide at 37 °C in an incubator (Heraceus, HeraCell).
(§4) Cell viability was examined using the MTT (3-(4,5-dimethylthiazol-2-yl)-2,5-diphenyltetrazolium bromide) assay. Cells were seeded in 96-well plates at a density of 5 × 10^3 cells/well and treated for 72 h with the tested compounds in the concentration range of 1–100 µM (1, 10, 25, 50 and 100 µM). Then, MTT (0.5 mg/mL) was added to the medium and cells were further incubated for 2 h at 37 °C. In the next stage, cells were lysed with DMSO and the absorbance of the formazan solution was measured at 550 nm with a plate reader (1420 multilabel counter, Victor, Jügesheim, Germany). The experiment was performed in triplicate. Values are expressed as the mean ± SD of at least three independent experiments. Cisplatin was used as a positive control.

In assay [2] the test system is HCT-116 (colon cancer) cell line. Description: MTT cell viability assay, HCT-116. The settings on record: Homo sapiens, HCT-116, 72 h, MTT, 72 h, 1-100 µM, mean ± SD. In kind it is cell-based, human. On the procedure: as §1, §2, §3, §4
For assay [3], the system named is MCF-7 (breast cancer) cell line. The assay is described as follows: MTT cell viability assay, MCF-7. The settings on record: MTT, 72 h, 1-100 µM, mean ± SD. The format is cell-based, human. On the procedure: as §1, §2, §3, §4
In assay [4] the test system is HaCaT (non-cancerous keratinocyte cell line). Description: MTT cell viability assay, HaCaT. The format is cell-based. The settings on record: Homo sapiens, 72 h, 1-100 µM, mean ± SD, non-cancerous cells. How it is done: as §1, §2, §3, §4
Assay [5] relates to HeLa (cervical cancer) cell line. Description: MTT cell viability assay, HeLa. In kind it is cell-based, human. The settings on record: Homo sapiens, HeLa, 72 h, MTT, 1-100 µM, mean ± SD. On the procedure:
as §1, §2, §3, §4

For the molecule `Cc1cc(S(=O)(=O)N=c2[nH]c3ccccc3[nH]2)c(SCc2nc(N)nc(N3CCc4ccccc43)n2)cc1Cl` [Compound 9, 2-{[4-Amino-6-(indolin-1-yl)-1,3,5-triazin-2-yl]metylthio}-N-(1H-benzo[d]imidazol-2(3H)-ylidene)-4-chloro-5-methylbenzenesulfonamide], the IC50 was 17 to 30 µM in assay [1]; 25 ± 1 µM in assay [2]; 20 ± 1 µM in assay [3] (Homo sapiens, MCF7, 72 h); 42 ± 2 µM in assay [4]; 23 ± 1 µM in assay [5].
`Cc1cc(S(=O)(=O)N=c2[nH]c3ccccc3[nH]2)c(SCc2nc(N)nc(N3CCN(C)CC3)n2)cc1Cl` [Compound 18, 2-{[4-Amino-6-(4-methylpiperazin-1-yl)-1,3,5-triazin-2-yl]metylthio}-N-(1H-benzo[d]imidazol-2(3H)-ylidene)-4-chloro-5-methylbenzenesulfonamide]: the IC50 in assay [1] was 42 to 82 µM; in assay [2] it was 42 ± 2 µM; in assay [3] (Homo sapiens, MCF7, 72 h), over 100 µM; in assay [3], 82 ± 3 µM; in assay [4] it was 84 ± 3 µM; in assay [5], 61 ± 2 µM.
`Cc1cc(S(=O)(=O)N=c2[nH]c3ccccc3[nH]2)c(SCc2nc(N)nc(N3CCN(c4ccccc4)CC3)n2)cc1Cl` [Compound 19, 2-{[4-Amino-6-(4-phenylpiperazin-1-yl)-1,3,5-triazin-2-yl]methylthio}-N-(1H-benzo[d]imidazol-2(3H)-ylidene)-4-chloro-5-methylbenzenesulfonamide]: the IC50 in assay [1] is 7 to 19 µM; in assay [2], 15 ± 1 µM; in assay [3] (Homo sapiens, MCF7, 72 h), 19 ± 1 µM; in assay [4], 31 ± 1 µM; in assay [5] it was 18 ± 1 µM.
The corresponding values for `Cc1cc(S(=O)(=O)N=c2[nH]c3ccccc3[nH]2)c(SCc2nc(N)nc(N3CCN(c4ccc(F)cc4)CC3)n2)cc1Cl` [Compound 20, 2-[{4-Amino-6-[4-(4-fluorophenyl)piperazin-1-yl]-1,3,5-triazin-2-yl}methylthio]-N-(1H-benzo[d]imidazol-2(3H)-ylidene)-4-chloro-5-methylbenzenesulfonamide] are 7 to 19 µM, 16 ± 0.5 µM, 17 ± 0.5 µM, 35 ± 1 µM and 17 ± 1 µM.
Take `Cc1cc(S(=O)(=O)N=c2[nH]c3ccccc3[nH]2)c(SCc2nc(N)nc(N3CCN(c4ccc(Cl)cc4)CC3)n2)cc1Cl` [Compound 23, 2-[{4-Amino-6-[4-(4-chlorophenyl)piperazin-1-yl]-1,3,5-triazin-2-yl}methylthio]-N-(1H-benzo[d]imidazol-2(3H)-ylidene)-4-chloro-5-methylbenzenesulfonamide]: the IC50 was 7 to 19 µM in assay [1]; 16 ± 0.5 µM in assay [2]; 17 ± 0.5 µM in assay [3] (Homo sapiens, MCF7, 72 h); 35 ± 1 µM in assay [4]; 17 ± 1 µM in assay [5].
For the molecule `Cc1cc(S(=O)(=O)N=c2[nH]c3ccccc3[nH]2)c(SCc2nc(N)nc(N3CCN(S(=O)(=O)c4ccccc4)CC3)n2)cc1Cl` [Compound 32, 2-[{4-Amino-6-[4-(phenylsulfonyl)piperazin-1-yl]-1,3,5-triazin-2-yl}methylthio]-N-(1H-benzo[d]imidazol-2(3H)-ylidene)-4-chloro-5-methylbenzenesulfonamide], the IC50 in assay [1] is 137 to 280 µM; in assay [3] (Homo sapiens, MCF7, 72 h) it was over 100 µM; in assay [3], 137 ± 3 µM.
As for `Cc1cc(S(=O)(=O)N=c2[nH]c3ccc(F)cc3[nH]2)c(SCc2nc(N)nc(N3CCc4ccccc43)n2)cc1Cl` [Compound 34, 2-{[4-Amino-6-(indolin-1-yl)-1,3,5-triazin-2-yl]metylthio}-4-chloro-N-(5-fluoro-1H-benzo[d]imidazol-2(3H)-ylidene)-5-methylbenzenesulfonamide], the IC50 in assay [1] is 17 to 30 µM; in assay [2], 17 ± 1 µM; in assay [3] (Homo sapiens, MCF7, 72 h), 25 ± 1 µM; in assay [4], 41 ± 1 µM; in assay [5], 30 ± 1 µM.
For `Cc1cc(S(=O)(=O)N=c2[nH]c3ccc(Cl)cc3[nH]2)c(SCc2nc(N)nc(Nc3ccccc3)n2)cc1Cl` [Compound 42, 2-{[4-Amino-6-(phenylamino)-1,3,5-triazin-2-yl]methylthio}-4-chloro-N-(5-chloro-1H-benzo[d]imidazol-2(3H)-ylidene)-5-methylbenzenesulfonamide], the IC50 in assay [1] was 17 to 30 µM; in assay [2], 18 ± 1 µM; in assay [3] (Homo sapiens, MCF7, 72 h) it was 23 ± 1 µM; in assay [4], 37 ± 1 µM; in assay [5] it was 24 ± 1 µM.
Take `Cc1cc(S(=O)(=O)N=c2[nH]c3ccc(Cl)cc3[nH]2)c(SCc2nc(N)nc(Nc3ccc(F)cc3)n2)cc1Cl` [Compound 43, 2-[{4-Amino-6-[(4-fluorophenyl)amino]-1,3,5-triazin-2-yl}methylthio]-4-chloro-N-(5-chloro-1H-benzo[d]imidazol-2(3H)-ylidene)-5-methylbenzenesulfonamide]: the IC50 in assay [2] amounted to 43 ± 1 µM; in assay [3] (Homo sapiens, MCF7, 72 h), 44 ± 2 µM; in assay [4] it was 55 ± 2 µM; in assay [5] it was 45 ± 2 µM.
Consider `COc1ccc(Nc2nc(N)nc(CSc3cc(Cl)c(C)cc3S(=O)(=O)N=c3[nH]c4ccc(Cl)cc4[nH]3)n2)cc1` [Compound 44, 2-[{4-Amino-6-[(4-methoxyphenyl)amino]-1,3,5-triazin-2-yl}methylthio]-4-chloro-N-(5-chloro-1H-benzo[d]imidazol-2(3H)-ylidene)-5-methylbenzenesulfonamide], for which the IC50 was 48 ± 1 µM in assay [2]; 47 ± 2 µM in assay [3] (Homo sapiens, MCF7, 72 h); 61 ± 2 µM in assay [4]; 50 ± 2 µM in assay [5].
As for `Cc1cc(S(=O)(=O)N=c2[nH]c3ccc(Cl)cc3[nH]2)c(SCc2nc(N)nc(N3CCN(c4ccccc4)CC3)n2)cc1Cl` [Compound 45, 2-[{4-Amino-6-[4-(4-phenyl)piperazin-1-yl]-1,3,5-triazin-2-yl}metylthio]-4-chloro-N-(5-chloro-1H-benzo[d]imidazol-2(3H)-ylidene)-5-methylbenzenesulfonamide], the IC50 in assay [2] worked out at 15 ± 1 µM; in assay [3] (Homo sapiens, MCF7, 72 h) it was 26 ± 1 µM; in assay [4], 39 ± 1 µM; in assay [5], 28 ± 1 µM.
For the molecule `Cc1cc(S(=O)(=O)N=c2[nH]c3ccc(Cl)cc3[nH]2)c(SCc2nc(N)nc(N3CCN(c4ccc(C(F)(F)F)cc4)CC3)n2)cc1Cl` [Compound 47, 2-{[4-Amino-6-{4-[4-(trifluoromethyl)phenyl]piperazin-1-yl}-1,3,5-triazin-2-yl]methylthio}-4-chloro-N-(5-chloro-1H-benzo[d]imidazol-2(3H)-ylidene)-5-methylbenzenesulfonamide], the IC50 turned out to be 21 ± 1 µM in assay [2]; 24 ± 1 µM in assay [3] (Homo sapiens, MCF7, 72 h); 38 ± 1 µM in assay [4]; 22 ± 1 µM in assay [5].
Consider `Cc1cc(S(=O)(=O)N=c2[nH]c3ccc(Cl)cc3[nH]2)c(SCc2nc(N)nc(N3CCN(c4ccc(Cl)c(Cl)c4)CC3)n2)cc1Cl` [Compound 48, 2-[{4-Amino-6-[4-(3,4-dichlorophenyl)piperazin-1-yl]-1,3,5-triazin-2-yl}methylthio]-4-chloro-N-(5-chloro-1H-benzo[d]imidazol-2(3H)-ylidene)-5-methylbenzenesulfonamide], for which the IC50 in assay [2] came to 34 ± 2 µM; in assay [3] (Homo sapiens, MCF7, 72 h), 32 ± 1 µM; in assay [4], 40 ± 2 µM; in assay [5] it was 34 ± 1 µM.
With `COc1ccccc1N1CCN(c2nc(N)nc(CSc3cc(Cl)c(C)cc3S(=O)(=O)N=c3[nH]c4ccc(Cl)cc4[nH]3)n2)CC1` [Compound 49, 2-[{4-Amino-6-[4-(2-methoxyphenyl)piperazin-1-yl]-1,3,5-triazin-2-yl}methylthio]-4-chloro-N-(5-chloro-1H-benzo[d]imidazol-2(3H)-ylidene)-5-methylbenzenesulfonamide], the IC50 in assay [2] worked out at 30 ± 1 µM; in assay [3] (Homo sapiens, MCF7, 72 h), 35 ± 1 µM; in assay [4], 96 ± 1 µM; in assay [5], 34 ± 1 µM.
